# Reference: ChEMBL document CHEMBL5584231, “Rational design of a new short anticancer peptide with good potential for cancer treatment” (Eur J Med Chem, 2024)
# Residues, ends and D or L forms follow the SMILES beside them.
# Legend:
# [1] = Therapeutic index, ratio of HC10 for mouse RBC to IC50 for cytotoxicity against RG cells (unknown origin); type: toxicity, cell-based; details: mouse RBC and RG cells, read-out: TI
# [2] = Cytotoxicity against RG cells (unknown origin) assessed as inhibition of cell growth incubated for 1 hr by MTT assay; type: functional, cell-based
# [3] = Cytotoxicity against HK-2 cells assessed as inhibition of cell growth incubated for 1 hr by MTT assay; type: toxicity, cell-based; details: human
# [4] = Therapeutic index, ratio of HC10 for mouse RBC to IC50 for cytotoxicity against human A549 cells; type: toxicity, cell-based; details: mouse RBC and A549 cells, read-out: TI
# [5] = Therapeutic index, ratio of HC10 for mouse RBC to IC50 for cytotoxicity against human MCF7 cells; type: toxicity, cell-based; details: mouse RBC and MCF7 cells, read-out: TI
# [6] = Therapeutic index, ratio of HC10 for mouse RBC to IC50 for cytotoxicity against human HeLa cells; type: toxicity, cell-based; details: mouse RBC and HeLa cells, read-out: TI
# A549 = assay: Cytotoxicity against human A549 cells assessed as inhibition of cell growth incubated for 1 hr by MTT assay; type: functional, cell-based; details: A549, 1 h
# MCF7 = assay: Cytotoxicity against human MCF7 cells assessed as inhibition of cell growth incubated for 1 hr by MTT assay; type: functional, cell-based; details: MCF7, 1 h
# HeLa = assay: Cytotoxicity against human HeLa cells assessed as inhibition of cell growth incubated for 1 hr by MTT assay; type: functional, cell-based
Structure (SMILES),selectivity ratio [1],IC50 [2] [µM],IC50 at 1 h [3] [µM],selectivity ratio [4],selectivity ratio [5],selectivity ratio [6],IC50 (A549) [µM],IC50 (MCF7) [µM],IC50 (HeLa) [µM]
CC(C)C[C@H](NC(=O)[C@H](CC(C)C)NC(=O)[C@H](CCCCN)NC(=O)[C@H](CCCCN)NC(=O)[C@H](CC(C)C)NC(=O)[C@H](CC(C)C)NC(=O)[C@H](CCCCN)NC(=O)[C@H](CCCCN)NC(=O)[C@H](CC(C)C)NC(=O)[C@H](CC(C)C)NC(=O)[C@H](CCCCN)NC(=O)[C@H](CCCCN)NC(=O)[C@H](CC(C)C)NC(=O)[C@@H](N)CCC(=O)O)C(N)=O (H-ELKKLLKKLLKKLL-NH2),1.15,22.5,50.8,1.75,0.647,1.58,14.7,39.9,16.3
CC(C)C[C@H](NC(=O)[C@H](CC(C)C)NC(=O)[C@H](CCCCN)NC(=O)[C@H](CCCCN)NC(=O)[C@H](CC(C)C)NC(=O)[C@H](CC(C)C)NC(=O)[C@H](CCCCN)NC(=O)[C@H](CCCCN)NC(=O)[C@H](CC(C)C)NC(=O)[C@H](CC(C)C)NC(=O)[C@@H](N)CCCCN)C(=O)N[C@@H](CCCCN)C(N)=O (H-KLLKKLLKKLLK-NH2),8.86,47.2,82.6,3.19,4.66,18.9,131,89.7,22.2
CC(C)C[C@H](NC(=O)[C@H](CC(C)C)NC(=O)[C@H](CCCCN)NC(=O)[C@H](CCCCN)NC(=O)[C@H](CC(C)C)NC(=O)[C@H](CC(C)C)NC(=O)[C@H](CCCCN)NC(=O)[C@H](CCCCN)NC(=O)[C@H](CC(C)C)NC(=O)[C@H](CC(C)C)NC(=O)[C@H](CCCCN)NC(=O)[C@H](CCCCN)NC(=O)[C@H](CC(C)C)NC(=O)[C@H](CC(C)C)NC(=O)[C@H](CCCCN)NC(=O)[C@@H](N)CCCCN)C(=O)N[C@@H](CCCCN)C(N)=O (H-KKLLKKLLKKLLKKLLK-NH2),1.11,10.9,8.47,1.67,1.34,2.62,7.23,9.06,4.63
CC(C)C[C@H](NC(=O)[C@H](CC(C)C)NC(=O)[C@H](CCCCN)NC(=O)[C@H](CCCCN)NC(=O)[C@H](CC(C)C)NC(=O)[C@H](CC(C)C)NC(=O)[C@H](CCCCN)NC(=O)[C@H](CCCCN)NC(=O)[C@H](CC(C)C)NC(=O)[C@H](CC(C)C)NC(=O)[C@H](CCCCN)NC(=O)[C@H](CCCCN)NC(=O)[C@H](CC(C)C)NC(=O)[C@H](CC(C)C)NC(=O)[C@@H](N)CCCCN)C(=O)N[C@@H](CCCCN)C(N)=O (H-KLLKKLLKKLLKKLLK-NH2),1.34,6.79,7.36,2.31,1.22,2.31,3.93,7.46,3.94
CC(C)C[C@H](NC(=O)[C@H](CCCCN)NC(=O)[C@H](CC(C)C)NC(=O)[C@H](CC(C)C)NC(=O)[C@H](CCCCN)NC(=O)[C@H](CCCCN)NC(=O)[C@H](CC(C)C)NC(=O)[C@H](CC(C)C)NC(=O)[C@H](CCCCN)NC(=O)[C@H](CCCCN)NC(=O)[C@H](CC(C)C)NC(=O)[C@H](CC(C)C)NC(=O)[C@H](CCCCN)NC(=O)[C@H](CCCCN)NC(=O)[C@H](CC(C)C)NC(=O)[C@H](CC(C)C)NC(=O)[C@@H](N)CCCCN)C(N)=O (H-KLLKKLLKKLLKKLLKL-NH2),0.406,7.88,5.35,0.787,0.517,1.2,4.06,6.19,2.68
